Results published in patent US20230075856A1, “CYCLIC SULFAMIDE COMPOUNDS FOR TREATMENT OF HBV” (Assembly Biosciences, Inc., priority 2018, published 2023).
Like-named read-outs stand apart in the source and are kept apart here.

System: HBV viral load production from HepAD38 cells
Test: Viral production from HepAD38 cells: viral load in supernatant by qPCR of the HBV core sequence
Type: cell-based
Details: 5 days incubation, qPCR of supernatant HBV DNA vs DMSO control, read-out: viral load lowering EC50 (Activity)
In short: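 HepAD38 cells seeded at 50,000/well in tetracycline-free medium with 2% FBS, treated with compounds (final top concentration 10 μM) for 5 days at 37 °C. Supernatant HBV DNA quantified by TaqMan qPCR of core sequence against HBV DNA standards, relative to DMSO controls; EC50 by four-parameter logistic fit.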

[1] = Hepatitis B virus, HePAD38, 120 h

Row | Compound | EC50 [1] | EC50
1 | CN1C(C(=O)Nc2ccc(F)c(Cl)c2)CC(C(=O)NC2CCN(c3ccnc(-c4ccccc4)c3)CC2)NS1(=O)=O (stereo not shown) [Compound 1050] | < 50 nM | –
2 | CN1C(C(=O)Nc2ccc(F)c(Cl)c2)CC(C(=O)NC2CCN(c3ccnc(C4CC4)c3)CC2)NS1(=O)=O (stereo not shown) [Compound 1051] | < 50 nM | –
3 | CN1C(C(=O)Nc2ccc(F)c(Cl)c2)CC(C(=O)NC2CCN(c3ccnc(-c4cn(C)cn4)c3)CC2)NS1(=O)=O (stereo not shown) [Compound 1052] | < 50 nM | –
4 | CN1C(C(=O)Nc2ccc(F)c(Cl)c2)CC(C(=O)NC2CCN(c3ccnc(Cl)n3)CC2)NS1(=O)=O (stereo not shown) [Compound 1054] | < 50 nM | –
5 | CN1C(C(=O)Nc2ccc(F)c(Cl)c2)CC(C(=O)N[C@@H]2CCN(c3ccnc(Cl)c3)C2)NS1(=O)=O (stereo partly shown) [Compound 1055-R] | < 50 nM | –
6 | CN1C(C(=O)Nc2ccc(F)c(Cl)c2)CC(C(=O)N[C@H]2CCN(c3ccnc(Cl)c3)C2)NS1(=O)=O (stereo partly shown) [Compound 1055-S] | < 50 nM | –
7 | CN1C(C(=O)Nc2ccc(F)c(Cl)c2)CC(C(=O)NC2CCN(c3ccnc(Cl)c3)C2)NS1(=O)=O (stereo not shown) [Compound 1055] | < 50 nM | –
8 | Cc1nc(-c2ccc(F)cc2)sc1CNC(=O)C1CC(C(=O)Nc2ccc(F)c(Cl)c2)N(C)S(=O)(=O)N1 (stereo not shown) [Compound 1056] | < 50 nM | –
9 | Cc1cn(-c2ccccc2)nc1CNC(=O)C1CC(C(=O)Nc2ccc(F)c(Cl)c2)N(C)S(=O)(=O)N1 (stereo not shown) [Compound 1057] | < 50 nM | –
10 | CN1C(C(=O)Nc2ccc(F)c(Cl)c2)CC(C(=O)NCc2sc(Cl)nc2C(F)(F)F)NS1(=O)=O (stereo not shown) [Compound 1062] | 50 to 100 nM | –
11 | CN1C(C(=O)Nc2ccc(F)c(Cl)c2)CC(C(=O)NCc2sc(-c3ccccc3)nc2C(F)(F)F)NS1(=O)=O (stereo not shown) [Compound 1063] | < 50 nM | –
12 | CN1C(C(=O)Nc2ccc(F)c(Cl)c2)CC(C(=O)NCc2sc(-c3ccccc3Cl)nc2C(F)(F)F)NS1(=O)=O (stereo not shown) [Compound 1064] | < 50 nM | –
13 | Cc1nc(-c2ccccn2)sc1CNC(=O)C1CC(C(=O)Nc2ccc(F)c(Cl)c2)N(C)S(=O)(=O)N1 (stereo not shown) [Compound 1065] | < 50 nM | –
14 | CN1C(C(=O)Nc2ccc(F)c(Cl)c2)CC(C(=O)NC(c2ccccc2)c2cnc(Cl)s2)NS1(=O)=O (stereo not shown) [Compound 1066] | < 50 nM | –
15 | CN1C(C(=O)Nc2ccc(F)c(Cl)c2)CC(C(=O)NC(c2ccccc2)c2cnc(-c3ccccc3)s2)NS1(=O)=O (stereo not shown) [Compound 1067] | < 50 nM | –
16 | CN1C(C(=O)Nc2ccc(F)c(Cl)c2)CC(C(=O)NC(c2ccccc2)c2cnc(-c3ccccc3Cl)s2)NS1(=O)=O (stereo not shown) [Compound 1068] | 50 to 100 nM | –
17 | Cc1nc(CNC(=O)C2CC(C(=O)Nc3ccc(F)c(Cl)c3)N(C)S(=O)(=O)N2)sc1Br (stereo not shown) [Compound 1069] | < 50 nM | –
18 | Cc1nc(CNC(=O)C2CC(C(=O)Nc3ccc(F)c(Cl)c3)N(C)S(=O)(=O)N2)sc1-c1ccccc1 (stereo not shown) [Compound 1070] | < 50 nM | –
19 | Cc1nc(CNC(=O)C2CC(C(=O)Nc3ccc(F)c(Cl)c3)N(C)S(=O)(=O)N2)sc1-c1ccccc1Cl (stereo not shown) [Compound 1071] | < 50 nM | –
20 | CN1C(C(=O)Nc2ccc(F)c(Cl)c2)CC(C(=O)NCc2nn(-c3ccccc3)c3ccccc23)NS1(=O)=O (stereo not shown) [Compound 1072] | < 50 nM | –
21 | CN1C(C(=O)Nc2ccc(F)c(Cl)c2)CC(C(=O)NCc2nn(-c3ccccc3Cl)c3ccccc23)NS1(=O)=O (stereo not shown) [Compound 1073] | < 50 nM | –
22 | Cc1cccnc1N1CCC(NC(=O)C2CC(C(=O)Nc3ccc(F)c(Cl)c3)N(C)S(=O)(=O)N2)CC1 (stereo not shown) [Compound 1074] | < 50 nM | –

Row | Compound | EC50 [1] | EC50
23 | CN1C(C(=O)Nc2ccc(F)c(Cl)c2)CC(C(=O)NC2CCN(C(=O)OC(C)(C)C)C2)NS1(=O)=O (stereo not shown) [Compound 1081] | 100 to 10000 nM | –
24 | CN1C(C(=O)Nc2ccc(F)c(Cl)c2)CC(C(=O)NCc2sc(-c3ccccc3F)nc2C(F)(F)F)NS1(=O)=O (stereo not shown) [Compound 1082] | < 50 nM | –
25 | Cc1nc(-c2ccc(F)cc2F)sc1CNC(=O)C1CC(C(=O)Nc2ccc(F)c(Cl)c2)N(C)S(=O)(=O)N1 (stereo not shown) [Compound 1083] | < 50 nM | –
26 | CN1C(C(=O)Nc2ccc(F)c(Cl)c2)CC(C(=O)NC(c2ccccc2)c2cnc(-c3ccccc3F)s2)NS1(=O)=O (stereo not shown) [Compound 1084] | < 50 nM | –
27 | Cc1nc(CNC(=O)C2CC(C(=O)Nc3ccc(F)c(Cl)c3)N(C)S(=O)(=O)N2)sc1-c1ccccc1F (stereo not shown) [Compound 1085] | < 50 nM | –
28 | CN1C(C(=O)Nc2ccc(F)c(Cl)c2)CC(C(=O)NCc2nn(-c3ccccc3F)c3ccccc23)NS1(=O)=O (stereo not shown) [Compound 1086] | < 50 nM | –
29 | Cc1nc(-c2ccc(OCCN3CCCCC3)cc2)sc1CNC(=O)C1CC(C(=O)Nc2ccc(F)c(Cl)c2)N(C)S(=O)(=O)N1 (stereo not shown) [Compound 1087] | < 50 nM | –
30 | CN1C(C(=O)Nc2ccc(F)c(Cl)c2)CC(C(=O)NC2CCN(c3ccnc(C#N)c3)CC2)NS1(=O)=O (stereo not shown) [Compound 1089] | < 50 nM | –
31 | Cc1sc(N2CCC(NC(=O)C3CC(C(=O)Nc4ccc(F)c(Cl)c4)N(C)S(=O)(=O)N3)CC2)nc1C(=O)N(C)C (stereo not shown) [Compound 1093] | < 50 nM | –
32 | Cc1nc(Cl)sc1C(NC(=O)C1CC(C(=O)Nc2ccc(F)c(Cl)c2)N(C)S(=O)(=O)N1)c1ccccc1 (stereo not shown) [Compound 1098] | < 50 nM | –
33 | Cc1nc(-c2ccccc2)sc1C(NC(=O)C1CC(C(=O)Nc2ccc(F)c(Cl)c2)N(C)S(=O)(=O)N1)c1ccccc1 (stereo not shown) [Compound 1099] | 50 to 100 nM | –
34 | Cc1nc(-c2ccccc2Cl)sc1C(NC(=O)C1CC(C(=O)Nc2ccc(F)c(Cl)c2)N(C)S(=O)(=O)N1)c1ccccc1 (stereo not shown) [Compound 1100] | 50 to 100 nM | –
35 | Cc1nc(-c2ccccc2F)sc1C(NC(=O)C1CC(C(=O)Nc2ccc(F)c(Cl)c2)N(C)S(=O)(=O)N1)c1ccccc1 (stereo not shown) [Compound 1101] | 50 to 100 nM | –
36 | Cc1cnn(-c2ccccc2)c1CNC(=O)C1CC(C(=O)Nc2ccc(F)c(Cl)c2)N(C)S(=O)(=O)N1 (stereo not shown) [Compound 1104] | < 50 nM | –
37 | CN1C(C(=O)Nc2ccc(F)c(Cl)c2)CC(C(=O)Nc2cn(-c3ccccc3)cn2)NS1(=O)=O (stereo not shown) [Compound 1116] | 50 to 100 nM | –
38 | CN1C(C(=O)Nc2ccc(F)c(Cl)c2)CC(C(=O)NCc2cnc(N)s2)NS1(=O)=O (stereo not shown) [Compound 1132] | 100 to 10000 nM | –
39 | Cc1cn(-c2ccccc2)nc1CNC(=O)C1CC(C(=O)Nc2ccc(F)c(C#N)c2)N(C)S(=O)(=O)N1 (stereo not shown) [Compound 1134] | < 50 nM | –
40 | Cc1cn(-c2ccccc2)nc1CNC(=O)C1CC(C(=O)Nc2ccnc(Cl)c2)N(C)S(=O)(=O)N1 (stereo not shown) [Compound 1135] | < 50 nM | –
41 | Cc1nc(-c2ccccc2)sc1CNC(=O)C1CC(C(=O)Nc2ccc(F)c(C#N)c2)N(C)S(=O)(=O)N1 (stereo not shown) [Compound 1136] | < 50 nM | –
42 | Cc1nc(-c2ccccc2)sc1CNC(=O)C1CC(C(=O)Nc2ccnc(Cl)c2)N(C)S(=O)(=O)N1 (stereo not shown) [Compound 1137] | < 50 nM | –
43 | Cc1cn(-c2ccc(F)cc2)nc1CNC(=O)C1CC(C(=O)Nc2ccc(F)c(Cl)c2)N(C)S(=O)(=O)N1 (stereo not shown) [Compound 1141] | < 50 nM | –
44 | Cc1cn(-c2ccccc2F)nc1CNC(=O)C1CC(C(=O)Nc2ccc(F)c(Cl)c2)N(C)S(=O)(=O)N1 (stereo not shown) [Compound 1142] | < 50 nM | –

Row | Compound | EC50 [1] | EC50
45 | CN1C(C(=O)Nc2ccc(F)c(Cl)c2)CC(C(=O)NCc2cc(-c3ccc(F)cc3)nn2C)NS1(=O)=O (stereo not shown) [Compound 1143] | < 50 nM | –
46 | Cc1cn(-c2ccc(F)cc2F)nc1CNC(=O)C1CC(C(=O)Nc2ccc(F)c(Cl)c2)N(C)S(=O)(=O)N1 (stereo not shown) [Compound 1144] | < 50 nM | –
47 | CN1C(C(=O)Nc2ccc(F)c(Cl)c2)CC(C(=O)NCc2cn(-c3ccccc3)cn2)NS1(=O)=O (stereo not shown) [Compound 1145] | < 50 nM | –
48 | CN1C(C(=O)Nc2ccc(F)c(Cl)c2)CC(C(=O)NCc2cn(-c3ccccc3)nn2)NS1(=O)=O (stereo not shown) [Compound 1147] | 50 to 100 nM | –
49 | Cc1c(CNC(=O)C2CC(C(=O)Nc3ccc(F)c(Cl)c3)N(C)S(=O)(=O)N2)nnn1-c1ccccc1 (stereo not shown) [Compound 1148] | 100 to 10000 nM | –
50 | CN1C(C(=O)Nc2ccc(F)c(Cl)c2)CC(C(=O)NCc2cc(-c3ccccc3)on2)NS1(=O)=O (stereo not shown) [Compound 1149] | < 50 nM | –
51 | Cc1c(CNC(=O)C2CC(C(=O)Nc3ccc(F)c(Cl)c3)N(C)S(=O)(=O)N2)noc1-c1ccccc1 (stereo not shown) [Compound 1150] | < 50 nM | –
52 | CN1C(C(=O)Nc2ccc(F)c(Cl)c2)CC(C(=O)NCc2cc(-c3ccc(F)cc3)n(C)n2)NS1(=O)=O (stereo not shown) [Compound 1151] | < 50 nM | –
53 | CN1C(C(=O)Nc2ccc(F)c(Cl)c2)CC(C(=O)NCc2ncc(-c3ccc(F)cc3)s2)NS1(=O)=O (stereo not shown) [Compound 1153] | < 50 nM | –
54 | CN1C(C(=O)Nc2ccc(F)c(Cl)c2)CC(C(=O)NCc2cnc(-n3cccn3)s2)NS1(=O)=O (stereo not shown) [Compound 1157] | 50 to 100 nM | –
55 | CN1C(C(=O)Nc2ccc(F)c(Cl)c2)CC(C(=O)NCc2cnc(-n3ccnn3)s2)NS1(=O)=O (stereo not shown) [Compound 1158] | < 50 nM | –
56 | CN1C(C(=O)Nc2ccc(F)c(Cl)c2)CC(C(=O)NCc2cnc(C3CCC(C)(C)C3)s2)NS1(=O)=O (stereo not shown) [Compound 1159] | 100 to 10000 nM | –
57 | CN1C(C(=O)Nc2ccc(F)c(Cl)c2)CC(C(=O)NCC2CCCCC2)NS1(=O)=O (stereo not shown) [Compound 1160] | 100 to 10000 nM | –
58 | CN1C(C(=O)Nc2ccc(F)c(Cl)c2)CC(C(=O)NCCC2CCCO2)NS1(=O)=O (stereo not shown) [Compound 1161] | 100 to 10000 nM | –
59 | CN1C(C(=O)Nc2ccc(F)c(Cl)c2)CC(C(=O)NCc2cnc(-c3ccccn3)s2)NS1(=O)=O (stereo not shown) [Compound 1162] | < 50 nM | –
60 | CN(C)CCCCc1cnn(-c2ncc(CNC(=O)C3CC(C(=O)Nc4ccc(F)c(Cl)c4)N(C)S(=O)(=O)N3)s2)c1 (stereo not shown) [Compound 1197] | 100 to 10000 nM | –
61 | CN1C(C(=O)Nc2ccc(F)c(Cl)c2)CC(C(=O)NCc2cnc(Cl)s2)NS1(=O)=O (stereo not shown) [Compound 1199] | < 50 nM | –
62 | CN1C(C(=O)Nc2ccc(F)c(Cl)c2)CC(C(=O)NCc2nc(C(F)(F)F)cs2)NS1(=O)=O (stereo not shown) [Compound 1202] | 100 to 10000 nM | –
63 | CN1C(C(=O)Nc2ccc(F)c(Cl)c2)CC(C(=O)NCc2cnc(C3=CCC(C)(C)C3)s2)NS1(=O)=O (stereo not shown) [Compound 1205] | 100 to 10000 nM | –
64 | N3-(3-chloro-4-fluoro-phenyl)-2-methyl-1,1-(trifluoromethyl)phenyl]ethyl]-1,2,6-thiadiazinane-3,5-dicarboxamide [493-S-ISOMER-B] | – | 100 to 10000 nM
